Assay results taken from patent US7015313B2, “Lectin protein prepared from Korean marine crab Philyra pisum, process for preparing the same and the use thereof” (priority 2001, dated 2006).

Legend:
lectin PPA = assay: Hemagglutination-inhibition assay of the lectin PPA with monosaccharide, disaccharide and glycoprotein; format: binding, Philyra pisum; conditions: for Erythrocyte agglutination inhibition concentration: 6.25% mouse erythrocyte, lectin PPA diluted 128-fold; for inhibition of agglutination (in words): summary of Table 2
Procedure: In order to confirm that the lectin PPA of the present invention recognizes N-glycolylneuraminic acid, hemagglutination-inhibition reaction was performed using monosaccharide, disaccharide and glycoprotein. 50 Microliters of a 128-fold diluted solution of lectin PPA in 0.15 molar NaCl and 50 microliters of each of 1 milligram per milliliter solutions of monosaccharides (e.g., β-D-glucose, D-galactose, L-fucose, D-mannose, N-acetylneuraminic acid, N-glycolylneuraminic acid, N-acetyl-D-glucosamine, N-acetyl-D-galactosamine and methyl-α-D-glucopoyranoside), disaccharide (e.g., α-lactose, β-lactose, D-lactose, βgentiobiose, maltose, D-raffinose or D-cellobiose) and glycoprotein (e.g., bovine submaxillary mucin, thyroglobulin, fetuin and asialofetuin) in 0. 15 molar NaCl were added to the each well of a 96-well microplate. After the reaction for one hour or more at room temperature, 50 microliters of the erythrocyte suspended in 0.15 molar NaCl was added to each well and reacted for one hour at room temperature.
The negative sign (−) means that there is no hemagglutination-inhibition for 100 millimolar monosaccharide/disaccharide and 100 micromolar glucoprotein. NeuGc and NeuAc represent N-glycolylneuraminic acid and N-acetylneuraminic acid, respectively.

[1] = tested on: peroxidase-labeled lectin PPA; assay: ELISA with peroxidase-labeled lectin PPA on coated glycoproteins; format: binding, Philyra pisum; conditions: 1 milligram per milliliter glycoprotein solution diluted 10^3 to 10^8-fold, FIG. 3
Procedure: In order to more accurately verify the hemagglutination-inhibition reaction of the lectin PPA, ELISA was conducted. Specifically, the lectin PPA bound to a horse radish peroxidase (HRP) was used in examining the reactivity and sensitivity against glucoproteins by ELISA. First, 5.03 milligrams of HRP were dissolved in 0.2 milliliter of a 1.25% glutaraldehyde (EM grade)-100 millimolar sodium phosphate buffer (pH 6.8) and allowed to stand for 18 hours at room temperature. Then, 20 microliters of glycerol and 20 microliters of xylene cyanol were added thereto and this was used in performing gel filtration with a SEPHADEX (TM) G-75 column equilibrated with a 100 millimolar phosphate buffer and 0.15 molar NaCl (pH 7.2). After applying the glutaraldehyde-treated HRP onto the column and eluting with 0.15 molar NaCl, about 1 milliliter of the brownish fraction containing HRP solution was collected. This fraction was dialyzed with a 100 millimolar sodium carbonate-sodium bicarbonate buffer solution (pH 9.5) containing sucrose and followed by the same buffer without sucrose. To 300 microliters of HRP thus obtained were added 150 microliters of lectin PPA (concentration of about 0.4 milligram per milliliter concentration) containing with 0.15 molar NaCl. After confirming the pH value 9.0 or more, the resultant solution was incubated for 24 hours at 4° C. to prepare peroxidase-labeled lectin PPA. In the mean time, 1 milligram of each of fetuin, asialofetuin and bovine submaxillary mucin was dissolved in 1 milliliter of PBS and serial 10-fold dilutions were made. […] Then, the absorbance at 415 nanometers of each well was measured with a microplate reader. To eliminate the error of each well caused by the time difference while adding ABTS, a second measurement was performed after 10 minutes to determine the difference in the absorbances between the time of 10 minutes and 0 minute. […] The absorbance was decreased with the lowering of the concentration.

[2] = monosaccharide/disaccharide tested from 100 mM
[3] = glycoprotein tested from 100 micromolar
[4] = glycoprotein, minimum concentration

| Compound | Erythrocyte agglutination inhibition concentration (lectin PPA; [2]) | also measured |
| --- | --- | --- |
| OC[C@H]1O[C@@H](O[C@H]2[C@H](O)[C@@H](O)[C@H](O)O[C@@H]2CO)[C@H](O)[C@@H](O)[C@@H]1O [D-cellobiose] | — (The negative sign (−) means that there is no hemagglutination-inhibition for 100 millimolar monosaccharide/disaccharide) |  |
| O=C[C@H](O)[C@@H](O)[C@@H](O)[C@H](O)CO [D-galactose] | — (The negative sign (−) means that there is no hemagglutination-inhibition for 100 millimolar monosaccharide/disaccharide) |  |
| OC[C@H]1O[C@@H](O[C@H]2[C@H](O)[C@@H](O)C(O)O[C@@H]2CO)[C@H](O)[C@@H](O)[C@H]1O (stereo partly drawn) [D-lactose] | — (The negative sign (−) means that there is no hemagglutination-inhibition for 100 millimolar monosaccharide/disaccharide) |  |
| O=C[C@@H](O)[C@@H](O)[C@H](O)[C@H](O)CO [D-mannose] | — (The negative sign (−) means that there is no hemagglutination-inhibition for 100 millimolar monosaccharide/disaccharide) |  |
| OC[C@H]1O[C@H](OC[C@H]2O[C@H](O[C@]3(CO)O[C@H](CO)[C@@H](O)[C@@H]3O)[C@H](O)[C@@H](O)[C@@H]2O)[C@H](O)[C@@H](O)[C@H]1O [D-raffinose] | — (The negative sign (−) means that there is no hemagglutination-inhibition for 100 millimolar monosaccharide/disaccharide) |  |
| C[C@H](O)[C@@H](O)[C@@H](O)[C@H](O)C=O [L-fucose] | — (The negative sign (−) means that there is no hemagglutination-inhibition for 100 millimolar monosaccharide/disaccharide) |  |
| OC[C@H]1O[C@H](O[C@H]2[C@H](O)[C@@H](O)[C@H](O)O[C@@H]2CO)[C@H](O)[C@@H](O)[C@@H]1O [Maltose] | — (The negative sign (−) means that there is no hemagglutination-inhibition for 100 millimolar monosaccharide/disaccharide) |  |
| CO[C@H]1O[C@H](CO)[C@@H](O)[C@H](O)[C@H]1O [Methyl-α-D-glucopyranoside] | — (The negative sign (−) means that there is no hemagglutination-inhibition for 100 millimolar monosaccharide/disaccharide) |  |
| CC(=O)N[C@H]1C(O)O[C@H](CO)[C@H](O)[C@@H]1O (stereo partly drawn) [N-acetyl-D-galactosamine] | — (The negative sign (−) means that there is no hemagglutination-inhibition for 100 millimolar monosaccharide/disaccharide) |  |
| CC(=O)N[C@H]1C(O)O[C@H](CO)[C@@H](O)[C@@H]1O (stereo partly drawn) [N-acetyl-D-glucosamine] | — (The negative sign (−) means that there is no hemagglutination-inhibition for 100 millimolar monosaccharide/disaccharide) |  |
| CC(=O)N[C@H]1[C@H]([C@H](O)[C@H](O)CO)OC(O)(C(=O)O)C[C@@H]1O (some centres unmarked) [N-acetylneuraminic acid] | — (The negative sign (−) means that there is no hemagglutination-inhibition for 100 millimolar monosaccharide/disaccharide) |  |
| O=C(CO)N[C@H]1[C@H]([C@H](O)[C@H](O)CO)OC(O)(C(=O)O)C[C@@H]1O (some centres unmarked) [N-glycolylneuraminic acid] |  | Erythrocyte agglutination inhibition concentration (lectin PPA; monosaccharide/disaccharide, minimum concentration): 190 µM; inhibition of agglutination (in words) (lectin PPA): inhibited the agglutination |
| OC[C@H]1O[C@@H](O)[C@H](O)[C@@H](O)[C@@H]1O [beta.-D-glucose] | — (The negative sign (−) means that there is no hemagglutination-inhibition for 100 millimolar monosaccharide/disaccharide) |  |
| OC[C@H]1O[C@@H](O[C@H]2[C@H](O)[C@@H](O)[C@@H](O)O[C@@H]2CO)[C@H](O)[C@@H](O)[C@H]1O [α-lactose] | — (The negative sign (−) means that there is no hemagglutination-inhibition for 100 millimolar monosaccharide/disaccharide) |  |
| OC[C@H]1O[C@@H](OC[C@H]2O[C@@H](O)[C@H](O)[C@@H](O)[C@@H]2O)[C@H](O)[C@@H](O)[C@@H]1O [β-gentiobiose] | — (The negative sign (−) means that there is no hemagglutination-inhibition for 100 millimolar monosaccharide/disaccharide) |  |
| OC[C@H]1O[C@@H](O[C@H]2[C@H](O)[C@@H](O)[C@H](O)O[C@@H]2CO)[C@H](O)[C@@H](O)[C@H]1O [β-lactose] | — (The negative sign (−) means that there is no hemagglutination-inhibition for 100 millimolar monosaccharide/disaccharide) |  |
| Asialofetuin: glycoprotein without sialic acid, does not contain N-glycolylneuraminic acid |  | Erythrocyte agglutination inhibition concentration (lectin PPA; [3]): — (The negative sign (−) means that there is no hemagglutination-inhibition for 100 millimolar monosaccharide/disaccharide and 100 micromolar glucoprotein); ELISA response (absorbance at 415 nanometers) [1]: no response occurred |
| Bovine submaxillary mucin |  | Erythrocyte agglutination inhibition concentration (lectin PPA; [4]): 1.3 µM; inhibition of agglutination (in words) (lectin PPA): inhibited the agglutination; ELISA response (absorbance at 415 nanometers) [1]: a response in which absorbance value is increased was observed |
| Fetuin: glycoprotein with NeuAc, does not contain N-glycolylneuraminic acid |  | Erythrocyte agglutination inhibition concentration (lectin PPA; [3]): — (The negative sign (−) means that there is no hemagglutination-inhibition for 100 millimolar monosaccharide/disaccharide and 100 micromolar glucoprotein); ELISA response (absorbance at 415 nanometers) [1]: no response occurred |
| Thyroglobulin: glycoprotein containing N-glycolylneuraminic acid |  | Erythrocyte agglutination inhibition concentration (lectin PPA; [4]): 0.4 µM; inhibition of agglutination (in words) (lectin PPA): inhibited the agglutination |
